Measured values from patent US20130035302A1, “USE OF […] ANALOGUES AND DERIVATIVES THEREOF FOR TREATING AND/OR PREVENTING NEURODEGENERATIVE DISEASES LINKED TO TAU AND BETA AMYLOID” (UNIVERSIDADE DE SANTIAGO DE COMPOSTELA, priority 2010, published 2013).

What was measured:
β-amyloid = assay: Intracellular β-amyloid expression, immunocytometry with 6E10 antibody; assay type: cell-based, mouse; details: 3xTg-AD neocortical cultures, 1 nM yessotoxin between days 3 and 7 of culture; **p<0.005 vs transgenic cultures, n=3
Source text: (§1) In order to carry out the experiments of the present invention, either an in vitro cortical neuronal model with simultaneous overexpression of Tau and β-amyloid, obtained from a model of Alzheimer's disease in triple-transgenic (3xTg-AD or 3xTg) mice, obtainable via the detailed procedure in the international patent application WO 2003/053136 and provided by the title holders of this application, or an in vitro cortical neuronal model obtained from non-transgenic (no Tg) mice was used.
(§2) The effect of yessotoxin on overexpression of β-amyloid and Tau hyperphosphorylation was determined by immunocytometric and Western blot techniques. Primary neuronal cultures were treated with 1 nM yessotoxin between days 3 and 7 of culture. The cells were then processed following the usual protocols for immunocytometry and Western blot. For immunocytometric and Western blot studies, protein expression was evaluated using 6E10 anti-β-amyloid primary antibodies at a dilution of 1:500, AT8 anti-Tau (Tau phosphorylated on Ser202, dilution 1:1000) and AT100 anti-Tau (Tau phosphorylated on Thr212 and Ser214, dilution 1:1000). […] Total protein concentration was determined by Bradford's method using bovine albumin as standard. […] The membranes were incubated with the primary antibodies, washed, and then incubated with a secondary antibody linked to HRP; the immunoreactivity was detected by chemiluminescence. […]

[1] = test system: Tau phosphorylated on Thr212 and Ser214; assay: Phosphorylated Tau (Thr212 and Ser214), Western blot with AT100 antibody; assay type: cell-based, mouse; details: 3xTg-AD cortical cultures, 1 nM yessotoxin between days 3 and 7 of culture; n=3
Source text: as §1, §2

[2] = test system: primary cortical cultures; assay: Cellular viability, Alamar Blue fluorescence assay; assay type: cell-based, mouse; details: primary cortical neurones, up to concentrations of 1 nM, Alamar Blue 10%
Source text: as §1
The primary cortical cultures in the present invention were obtained from 3xTg-AD mouse embryos of 15-17 days of gestation and the wild cultures were obtained from non-3xTg control mouse embryos of the same strain. The effect of the compounds used in this invention on cellular viability was estimated by a fluorescence assay using the Alamar Blue viability indicator. To carry out the assay, primary cortical cultures seeded on 96-well plates were used. The neuronal cells were incubated with yessotoxin, which was added to the culture medium at different concentrations, and the effect on in vitro neuronal viability at different treatment times was determined. The maximum concentration of yessotoxin evaluated was 1 nM and the concentration of Alamar blue was 10%.
The reaction volume used was 200 μl. Fluorescence was measured at wavelengths of 530 nm (excitation) and 590 nm (emission).

[3] = Paz et al., Marine Drugs 2008; cited from earlier work
[4] = test system: Tau phosphorylated on Ser202; assay: Phosphorylated Tau (Ser202), Western blot with AT8 antibody; assay type: cell-based, mouse; details: 3xTg-AD cortical cultures, 1 nM yessotoxin between days 3 and 7 of culture; *p<0.05, n=3
Source text: as §1, §2

yessotoxin
overexpression of β-amyloid (6E10 immunoreactivity) (β-amyloid): significant reduction of overexpression of β-amyloid | reduction of Tau phosphorylation (AT100, Thr212 and Ser214) [1]: 12% | effect on in vitro cell viability [2]: did not affect in vitro cell viability | oral toxicity [3]: does not exhibit oral toxicity | Tau phosphorylation (AT8, Ser202) [4]: significant reduction of Tau phosphorylation
